From patent US12338236B2, “Benzoisothiazole and benzoisoxazole compounds for the treatment of mental disorders” (SUVEN LIFE SCIENCES LIMITED, priority 2022, dated 2025)
Counter-ions that a name gives are not always drawn.

System: amphetamine-induced hyperlocomotion
Assay: Amphetamine-induced open field assay
Type: in vivo, Male Wistar rats
Conditions: rats, 3, 10, 30 mg/kg, p.o., vs Amphetamine (2.5 mg/kg, i.p.) treated group
Description: Example-51: Amphetamine-Induced Open Filed Assay
Male Wistar rats of 230-250 g weight were used. The body weights of the rats were recorded. Rats were randomized according to their body weights. Animals were brought to the laboratory 1 h prior to acclimatizing to the laboratory conditions. The open field is black colored arena of 51×51×51 cm enclosed by black plastic walls of same dimensions. Rats were habituated to the open field arena for a period of 15 min. Animals were administered respective treatments (Vehicle or Example-2) 60 min prior to the trial. After 30 min, animals were challenged with amphetamine (2.5 mg/kg, i.p.) or vehicle. Then the animals were placed in open field arenas and distance traveled by […] was tracked for 15 min using Videomot software. Data was analyzed using GraphPad prism.

Cc1nnc(-c2csc(OCCCN3CCN(c4nsc5ccccc45)CC3)n2)o1 [Example-2, 3-(4-{3-[4-(5-Methyl-[1,3,4]oxadiazol-2-yl)-thiazol-2-yloxy]-propyl}-piperazin-1-yl)-benzo[d]isothiazole oxalate]
Effect on amphetamine-induced locomotion (distance traveled): significant decrease in locomotion
